# Assays:
# [1] = system: clonal line of OCT4-ΔPE-GFP+ cells derived in the absence of transgenes; test: Withdrawal of single kinase inhibitors or growth factors from 5i/L/FA medium; type: cell-based, human; details: for differentiation and expression of pluripotency genes: FGF and Activin A removed together from 5i/L/FA
# Excerpt: To investigate the relative contribution of individual components in 5i/L/FA medium, single kinase inhibitors or growth factors were removed from a clonal line of OCT4-ΔPE-GFP+ cells derived in the absence of transgenes. […] Therefore, the maintenance of OCT4-ΔPE-GFP reporter activity is dependent primarily on MEK inhibition and BRAF inhibition, while robust proliferation of GFP+ cells requires ROCK inhibition. Recombinant FGF enhances the induction of naïve reporter activity, but can be omitted in established GFP+ cells.
# [2] = system: OCT4-ΔPE-GFP+ naïve human ESCs; test: Maintenance of OCT4-ΔPE-GFP+ naïve human ESCs with additional media additives or changed basal medium; type: cell-based; details: for proportion of OCT4-ΔPE-GFP+ cells: inhibitor included in 5i/L/A medium, three passages
# Excerpt: The kinase inhibitors reported by Hanna and colleagues may have an additive effect in combination with the 5i/L/A medium. […] Another difference between the naïve human studies reported to date is the use of 20% knock-out serum replacement (KSR) or Albumax-containing medium (Gafni et al., 2013; Valamehr et al., 2014; Ware et al., 2014) vs. serum-free N2B27 medium (this study). The consequences of applying the inhibitor cocktail in the presence of 20% KSR was therefore investigated. […] It is concluded that the induction and maintenance of OCT4-ΔPE-GFP+ human ESCs is highly sensitive to the choice of basal medium.
# [3] = system: WIBR3 OCT4-ΔPE-GFP+ human ESCs; test: Viability screen and titration: viable (DAPI-) OCT4-ΔPE-GFP+ cells after DOX withdrawal in 2i/L/SB590885; type: cell-based; details: for concentration giving a significant improvement in the proportion of viable GFP+ cells (titration): titration of PD0325901, CHIR99021 and SB590885, two passages after DOX withdrawal
# Method: To screen for small molecules that support naïve human pluripotency, doxycycline was withdrawn from a clonal line of WIBR3 OCT4-ΔPE-GFP+ human ESCs derived in 2i/L/DOX. 24 h after Dox withdrawal, cells were dissociated in 0.25% trypsin/EDTA solution (Invitrogen) and seeded at a density of 5000 cells per individual well in 96 well plates on a MEF feeder layer in 2i/L supplemented with the ROCK-inhibitor Y-27632. After an additional 24 h, 2i/L medium in each individual 96 well was supplemented with a kinase inhibitor from the LINCS inhibitor library (Gray Laboratory, Dana Farber Cancer Institute, Boston, MA) at a final concentration of 1 μM. To improve experimental consistency the small molecule library was applied using the Caliper RapidPlate 96 well Liquid Handling System (Zymark, Westborough, MA). Briefly, a master plate containing 10 mM stock solution of the library in DMSO was first diluted to 100 μM in HEPES aqueous solution (daughter plate), and subsequently to 10 μM in N2B27 basal medium supplemented with 2i/L (granddaughter plate). This granddaughter plate was then diluted a further 10× in 2i/L medium, the final medium was pre-mixed and applied slowly to the 96 well assay plate. Following two medium changes during a seven day period the proportion of OCT4-ΔPE-GFP+ human ESCs in each well was assessed using the High-Throughput System on the LSRFortessa (Beckton-Dickinson, San Jose, CA). To screen for small molecules that improve the proportion of viable OCT4-ΔPE-GFP+ cells, this assay was modified by the addition of 1.0 μM SB590885 to each well and inclusion of a 10 minute DAPI (Life Technologies) staining prior to high-throughput FACS analysis. Viable cells were gated from the DAPI-negative fraction and subsequently assessed for GFP status.
# This led us to consider whether other small molecules could cooperate with 2i/L/SB590885 to improve the fraction of viable GFP+ cells. Inclusion of a live/dead assay enhanced the resolution of the 96 well high-throughput FACS analysis, allowing for more sensitive discrimination between the proportion of viable OCT4-ΔPE-GFP+ cells cultured in 2i/L/DOX vs. 2i/L/SB590885 (FIG. 3A). This viability assay was included in a modified screen in which GFP+ cells were cultured for two passages after DOX withdrawal in 2i/L/SB590885 supplemented with the kinase inhibitor library (FIG. 3B-C and FIG. 10A). […] A titration of the concentrations of PD0325901, CHIR99021 and SB590885 was also performed during two passages after DOX withdrawal followed by high-throughput FACS analysis (FIG. 3D). […] This is reminiscent of recent evidence that lowered GSK3 inhibition reduces differentiation and enhances the self-renewal of rat ESCs (Meek et al., 2013). […]
# [4] = system: OCT4-ΔPE-GFP-negative (primed) human ESCs; test: Removal of latent OCT4-ΔPE-GFP-negative cells during 2i/L/DOX induction; type: cell-based; details: additional treatment with 0.1 μM PD173074 and 5 μM SB431542 upon addition of 2i/L/DOX
# Excerpt: VSVG coated lentiviruses were generated in HEK-293 cells as described previously (Brambrink et al., 2008; Soldner et al., 2009; Soldner et al., 2011). Briefly, culture medium was changed 12 hr post-transfection and virus-containing supernatant was collected 48 to 72 hr post transfection. Viral supernatant was filtered through a […] filter. Virus-containing supernatants of the 2 reprogramming viruses (FUW-tetO-lox-hKLF2 and FUW-tetO-lox-hNANOG) were pooled and supplemented with the FUW-lox-M2rtTA virus and an equal volume of fresh culture medium. 1×10^6 human ESCs were seeded 24 hr before transduction in T75 flasks on matrigel in mTesr1 medium (STEMCELL Technologies). Two consecutive infections in the presence of […] of polybrene were performed over a period of 24 hr. Culture medium was changed 12 hr after the last infection. Five days after transduction, human ESCs were passaged using 0.25% trypsin/EDTA solution (Invitrogen) and re-plated on mitomycin C inactivated mouse embryonic fibroblast (MEF) feeder layers in conventional human ESC medium. To induce conversion to the naïve state, human ESCs were trypsinized and seeded at a density of 1×10^5 cells per 6 individual well on a MEF feeder layer in presence of ROCK inhibitor Y-27632. […]
# [5] = system: transgene-dependent naïve human ES cells (subclone of WIBR3); test: Titration and proliferation assay in transgene-dependent naïve human ES cell line after DOX withdrawal (GSK3/Wnt signal modulators); type: cell-based; details: added to 4i/L/A: CHIR99021 1 μM replacing IM12, or IWR1 2.5 μM
# Method: A transgene-dependent naïve human embryonic stem (ES) cell line, a subclone of WIBR3, was used to titrate different concentrations of inhibitors in 5i/L/A (see Theunissen et al., Cell Stem Cell, 2014). The cell line used is dependent on Doxycycline (DOX) to maintain the expression of two lentiviral transgenes, KLF2 and NANOG. […] A titration assay was performed to determine the optimal concentrations of small molecule inhibitors to maintain naïve human DES cells. The cells were subject to sequential passaging by single cell dissociation at low density (1:10) under four conditions: 2i/L, 5i/L/A, t5i/L/A (0.2 μM GSK3 inhibitor IM12) and 4i/L/A (removal of GSK3 inhibitor IM12).
# The proliferation of naïve human ES cells in the presence of different Wnt signal modulators was quantified after the withdrawal of DOX from the transgene-dependent cell line described above. In a six-well plate, 1×10^5 cells were seeded per well and cells were dissociated and re-seeded at a 1:5 density for three successive passages. Cell numbers at successive passages were recorded under six conditions (n=2 per group): 2i/L/DOX (control), 2i/L, 5i/L/A, 4i/L/A (removal of GSK3 inhibitor IM12), 4i/L/A+CHIR99021 (1 μM), and 4i/L/A+IWR1 (2.5 μM).
# OCT4-ΔPE-GFP+ human ESCs = test: Validation of hit compounds in 6 well format: DOX withdrawal and culture in 2i/L plus hit compound; type: cell-based
# Excerpt: To identify compounds that sustain OCT4-ΔPE-GFP activity in the absence of KLF2 and NANOG expression, a kinase inhibitor library was screened in the presence of 2i/L for a period of 7 days after DOX withdrawal in 96 well format (FIG. 2A). This screen identified 10 different hit compounds that partially rescued the proportion of GFP+ cells when assayed by high-throughput FACS analysis (FIG. 2B-C and FIG. 9A). Notable among these hits were four separate inhibitors of BRAF and four inhibitors of upstream receptor tyrosine kinases (RTKs), including DDR1, VEGFR1 and FGFR1. A validation experiment was then performed in 6 well format by withdrawing DOX and culturing the cells in 2i/L supplemented with each hit compound for up to 10 passages (FIG. 2D). Nearly all hit compounds maintained a proportion of GFP+ cells similar to that observed with DOX. […] Gene expression analysis 5 passages after DOX withdrawal confirmed the absence of KLF2 and NANOG transgene expression and retention of endogenous OCT4 and GFP transcripts (FIG. 2E and FIG. 9B). To validate these findings in an independent system DOX-inducible KLF2 and NANOG transgenes were introduced in a line of wild-type WIBR3 human ESCs. Upon application of DOX and 2i/L, dome-shaped colonies appeared that could be expanded clonally.
# [6] = three passages after withdrawal of the component from 5i/L/FA
compound,measurement,setting,value
"FGF: recombinant fibroblast growth factor 2 (R&D systems, 8 ng/mL)",differentiation and expression of pluripotency genes,[1],more differentiation and reduced expression
same,any of the parameters examined,[1]; withdrawal of FGF from 5i/L/FA,no apparent effect
insulin: media additive,beneficial effect of additive,[2]; insulin added,A beneficial effect was not observed
O=C(NOC[C@H](O)CO)c1ccc(F)c(F)c1Nc1ccc(I)cc1F [PD0325901],concentration giving a significant improvement in the proportion of viable GFP+ cells (titration),[3],1 µM
same,OCT4-ΔPE-GFP reporter activity,[1]; [6],rapid and widespread loss
same,colony morphology,[1]; [6],rapid and widespread loss
same,pluripotency gene expression,[1]; [6],rapid and widespread loss
CC(N)C1CCC(C(=O)Nc2ccncc2)CC1 (stereo not shown) [Y-27632],proportion of viable GFP+ cells,"[3]; Y-27632 (10 μM) added to 2i/L/SB590885 (0.5 μM), two passages",improved the proportion of viable GFP+ cells
same,proliferation,[1]; [6],significant reduction
hLIF: recombinant human LIF (made in-house),OCT4-ΔPE-GFP reporter activity,[1]; [6],unaffected
same,pluripotency gene expression,[1]; [6],unaffected
NC(=O)c1ccc(-c2nc(-c3ccc4c(c3)OCO4)c(-c3ccccn3)[nH]2)cc1 [SB431542],latent OCT4-ΔPE-GFP-negative cells,[4],removed almost entirely
O=C(Nc1cccc2cccnc12)c1ccc(N2C(=O)[C@@H]3[C@H](C2=O)[C@@H]2C=C[C@H]3C2)cc1 [IWR1],proliferation of naïve human cells (cell number),[5],did not further stimulate the proliferation
O=C1c2ccccc2-c2n[nH]c3cccc1c23 [SP600125],expression of KLF4 and KLF2,[2]; SP600125 added to 5i/L/A,increase in expression of KLF4 and KLF2
same,proportion of OCT4-ΔPE-GFP+ cells,[2],did not affect
Cc1ccc(-n2nc(C(C)(C)C)cc2NC(=O)Nc2ccc(OCCN3CCOCC3)c3ccccc23)cc1 [BIRB796],proportion of OCT4-ΔPE-GFP+ cells,[2],did not affect
"Activin A: cytokine (Peprotech, 20 ng/mL)",differentiation and expression of pluripotency genes,[1],more differentiation and reduced expression
same,OCT4-ΔPE-GFP reporter activity,[1]; [6],did not cause a reduction
CN(C)CCOc1ccc(-c2nc(-c3ccncc3)c(-c3ccc4c(c3)CC/C4=N\O)[nH]2)cc1 [SB590885],colony morphology and proliferation,"OCT4-ΔPE-GFP+ human ESCs; 6 well, 2i/L plus hit compound, up to 10 passages without DOX",preserved the best colony morphology and proliferation
same,colony morphology and expression of endogenous OCT4,"OCT4-ΔPE-GFP+ human ESCs; wild-type WIBR3 lines with DOX-inducible KLF2 and NANOG, maintained in 2i/L/SB590885 after DOX withdrawal",retaining both colony morphology and the expression of endogenous OCT4
same,viability (FACS-based live/dead discrimination assay),[3]; cells maintained in 2i/L/SB590885,reduced viability
same,concentration giving a significant improvement in the proportion of viable GFP+ cells (titration),[3],0.5 µM
same,OCT4-ΔPE-GFP reporter activity,[1]; [6],rapid and widespread loss
same,colony morphology,[1]; [6],rapid and widespread loss
same,pluripotency gene expression,[1]; [6],rapid and widespread loss
COc1ccc(N(C(=O)Oc2c(C)cccc2C)c2ccnc(Nc3ccc(N4CCN(C)CC4)cc3)n2)c(OC)c1 [WH-4-023],proportion of viable OCT4-ΔPE-GFP+ cells after DOX withdrawal,"[3]; 1 μM WH-4-023 combined with optimized concentrations of PD0325901, CHIR99021 and SB590885",further improved
same,fraction of viable GFP+ cells,[3]; two passages after DOX withdrawal in 2i/L/SB590885 supplemented with kinase inhibitor library,improved the fraction of viable GFP+ cells
same,OCT4-ΔPE-GFP reporter activity,[1]; [6],slight reduction
same,colony morphology,[1]; [6],change in morphology
Cc1cnc(-c2cnc(NCCNc3ccc(C#N)cn3)nc2-c2ccc(Cl)cc2Cl)[nH]1 [CHIR99021],proliferation of naïve human cells (cell number),[5],did not further stimulate the proliferation
same,proportion of viable GFP+ cells,[3]; higher concentrations of CHIR99021,opposite effect
same,proportion of viable GFP+ cells,[3]; lower concentrations of CHIR99021,improved the proportion of viable GFP+ cells
same,concentration giving a significant improvement in the proportion of viable GFP+ cells (titration),[3],0.3 µM
Cc1[nH]c2ccccc2c1C1=C(NCCc2ccc(F)cc2)C(=O)N(C)C1=O [IM12],morphology upon long-term culture without DOX,[3]; CHIR99021 replaced with IM12,improved morphology
